For assay [1], the system named is Per1 clock gene. In words: Per1 clock gene expression in HepG2 cells by qPCR. It counts as cell-based, human. To be noted: HepG2, 50 μg/mL, eight hours after addition, DMSO control. Here is the method: (§1) Cultured cells (human liver cancer-derived cell line HepG2) were seeded at 2.5×10^3 cells/cm^2 in a T-75 flask (BD Falcon™), and medium replacement (RPMI1640, 10% FBS) was performed every three days. The cells reaching 80% confluence were passaged at a concentration of 4.2×10^4 cells/mL in a 6-well plate (BD Falcon™), and in order to entrain the phases of the circadian rhythms of the cells, the medium was replaced with a low-serum medium (RPMI1640, 2% FBS) after three days. Three days after the replacement with a low-serum medium, the cells were subjected to testing. A solution of the test substance in DMSO (50 μg/μL) was prepared and added to the 6-well plate to give a final concentration of the test substance of 50 μg/mL. As a control, DMSO was added to the 6-well plate (to give a final concentration of 0.1%).
(§2) Eight hours after the addition of the test substance, the cells were harvested, and mRNA was extracted according to a conventional method. The extracted mRNA was used to analyze the expression levels of the Bmal1 and Per1 clock genes by qPCR (with Applied Biosystems 7900HT Fast Real-Time PCR System).
On the technique in general: In qPCR the cycle at which signal appears reflects the starting amount.

Assay [2] has as its system Bmal1 clock gene. Put plainly: Bmal1 clock gene expression in HepG2 cells by qPCR. Format: cell-based, human. Particulars: HepG2, 50 μg/mL, eight hours after addition, DMSO control. Here is the method:
as §1, §2

The test system of assay [3] is Per1 clock gene. Put plainly: Per1 clock gene expression in liver of SD rats by quantitative PCR. It counts as in vivo. Particulars: 200 mg/5 mL/kg orally once daily for 5 days, sampled four hours after the last treatment. The method, then: (§3) Seven-week-old male SD rats were habituated for one week and then classified into a test food group (isolated oleuropein group) and a control group (each group consisting of 6 animals). Next, the isolated oleuropein was dissolved in distilled water (produced by Otsuka Pharmaceutical Co., Ltd.), and the solution was orally administered forcibly to the test food group at a dose of 200 mg/5 mL/kg once daily for 5 days. The control food group was orally fed forcibly with distilled water (produced by Otsuka Pharmaceutical Co., Ltd.) at a dose of 5 mL/kg once daily for 5 days. Four hours after the last treatment, liver sampling was done.
(§4) From the liver samples collected, total RNA was extracted according to a conventional method, and used to analyze the expression levels of the Bmal1 and Per1 clock genes by quantitative PCR (with Applied Biosystems 7900HT Fast Real-Time PCR System).

The subject of assay [4] is Bmal1 clock gene. In words: Bmal1 clock gene expression in liver of SD rats by quantitative PCR. It counts as in vivo. To be noted: 200 mg/5 mL/kg orally once daily for 5 days, sampled four hours after the last treatment. Here is the method: as §3, §4

As to `COC(=O)C1=CO[C@@H](C)[C@@H](C=O)C1CC(=O)OCCc1ccc(O)c(O)c1` (mixture of isomers) [3,4-DHPEA-EA, 3,4-Dihydroxyphenylethanol-elenolic acid], the Per1 expression entry with Per1 clock gene [1] is “increasing”. For the same compound, in the assay with Bmal1 clock gene [2], the Bmal1 expression result is “reduced”.
As to `C/C=C1/[C@H](O[C@@H]2O[C@H](CO)[C@@H](O)[C@H](O)[C@H]2O)OC=C(C(=O)OC)[C@H]1CC(=O)OCCc1ccc(O)c(O)c1` [isolated oleuropein, Oleuropein], in the assay on Per1 clock gene [3], the “Per1 expression as compared to the control group” value is on record as “significant increase”. Further, the “Bmal1 expression as compared to the control group” value in the assay on Bmal1 clock gene [4] was “significant decrease”.

Source of the values: patent US20160206642A1, “CLOCK GENE EXPRESSION LEVEL REGULATOR” (SUNTORY HOLDINGS LIMITED, priority 2013, published 2016).
